In US6355799B1, “Substituted benzene compounds, process for their preparation, and herbicidal and defoliant compositions containing them” (ISK Americas Incorporated, priority 1997, dated 2002):

What was measured:
Type in all cases: in vivo
[1] = system: redroot pigweed (Amaranthus retroflexus, AMARE); assay: Pre-emerge test, greenhouse herbicide activity screening; conditions: pre-emerge, rated 14 days after application, 0 = no damage, 100 = complete death
Outline: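 Compounds in acetone were track-sprayed at 187 l/ha, 15–1000 g ai/ha, onto sandy loam pots. Pre-emerge seeds were sown one day before spraying, with surface watering afterwards. Post-emerge plants were at the 2–3 leaf stage and sprayed with 0.25% v/v non-ionic surfactant. Injury was rated 0–100 at 14 days.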

[2] = system: sicklepod (Cassia obtusifolia, CASOB); assay: as above; conditions: pre-emerge, rated 14 days after application, 0 = no damage, 100 = complete death
Outline: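 Plants grown in 10 cm pots of sandy loam mix received acetone-dissolved compounds through a moving flat-fan nozzle. Doses ranged from 15 to 1000 g ai/ha. Pre-emerge pots were seeded one day earlier, post-emerge pots 8–21 days earlier. Fourteen days on, each pot was graded 0–100 for damage.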

[3] = system: barnyardgrass (Echinochloa crus-galli, ECHCG); assay: Post-emerge test, greenhouse herbicide activity screening; conditions: Echinochloa crus-galli, post-emergence, 336 h, phytotoxicity rating 0-100 (0 no damage, 100 complete death), 14 days after application, read-out: Post-emerge Herbicidal Activity ECHCG
Outline: (§1)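 Rating: 0–100 visual injury, 14 DAA. Application: acetone, 187 l/ha, 15–1000 g ai/ha, flat-fan track sprayer with nozzle 40–45 cm above soil or canopy. Post-emerge runs used 0.25% v/v surfactant on 2–3 leaf plants.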

[4] = system: green foxtail (Setaria viridis, SETVI); assay: as above; conditions: Setaria viridis, post-emergence, 336 h, phytotoxicity rating 0-100 (0 no damage, 100 complete death), 14 days after application, read-out: Post-emerge Herbicidal Activity SETVI
Outline: as §1

[5] = system: ivyleaf morningglory (Ipomoea hederacea, IPOHE); assay: as above; conditions: Ipomoea, post-emergence, 336 h, phytotoxicity rating 0-100 (0 no damage, 100 complete death), 14 days after application, read-out: Post-emerge Herbicidal Activity IPOHE
Outline: as §1

[6] = system: johnsongrass (Sorghum halepense, SORHA); assay: as above; conditions: Sorghum halepense, post-emergence, 336 h, phytotoxicity rating 0-100 (0 no damage, 100 complete death), 14 days after application, read-out: Post-emerge Herbicidal Activity SORHA
Outline: as §1

[7] = system: lambsquarters (Chenopodium album, CHEAL); assay: as above; conditions: Chenopodium album, post-emergence, 336 h, phytotoxicity rating 0-100 (0 no damage, 100 complete death), 14 days after application, read-out: Post-emerge Herbicidal Activity CHEAL
Outline: as §1

[8] = system: large crabgrass (Digitaria sanguinalis, DIGSA); assay: as above; conditions: Digitaria sanguinalis, post-emergence, 336 h, phytotoxicity rating 0-100 (0 no damage, 100 complete death), 14 days after application, read-out: Post-emerge Herbicidal Activity DIGSA
Outline: as §1

[9] = system: redroot pigweed (Amaranthus retroflexus, AMARE); assay: as above; conditions: Amaranthus retroflexus, post-emergence, 336 h, phytotoxicity rating 0-100 (0 no damage, 100 complete death), 14 days after application, read-out: Post-emerge Herbicidal Activity AMARE
Outline: as §1

[10] = system: sicklepod (Cassia obtusifolia, CASOB); assay: as above; conditions: Senna obtusifolia, post-emergence, 336 h, phytotoxicity rating 0-100 (0 no damage, 100 complete death), 14 days after application, read-out: Post-emerge Herbicidal Activity CASOB
Outline: as §1

[11] = system: velvetleaf (Abutilon theophrasti, ABUTH); assay: as above; conditions: Abutilon theophrasti, post-emergence, 336 h, phytotoxicity rating 0-100 (0 no damage, 100 complete death), 14 days after application, read-out: Post-emerge Herbicidal Activity ABUTH
Outline: as §1

Cn1c(C(F)(F)F)cc(=O)n(-c2c(F)cc(Cl)c(O)c2N)c1=O [Compound 1-16, 3-(2-amino-4-chloro-6-fluoro-3-hydroxyphenyl)-1-methyl-6-trifluoromethyl-2,4(1H, 3H)-pyrimidinedione]
30%: pest or weed control at 63 g/ha ([7]; 63 g ai/ha) | pest or weed control at 63 g/ha ([9]; 63 g ai/ha) | pest or weed control at 63 g/ha ([11]; 63 g ai/ha)
0%: pest or weed control at 63 g/ha ([3]; 63 g ai/ha) | pest or weed control at 250 g/ha ([3]; 250 g ai/ha) | pest or weed control at 63 g/ha ([4]; 63 g ai/ha) | pest or weed control at 250 g/ha ([4]; 250 g ai/ha) | pest or weed control at 63 g/ha ([6]; 63 g ai/ha) | pest or weed control at 250 g/ha ([6]; 250 g ai/ha) | pest or weed control at 63 g/ha ([8]; 63 g ai/ha) | pest or weed control at 250 g/ha ([8]; 250 g ai/ha) | pest or weed control at 63 g/ha ([10]; 63 g ai/ha) | pest or weed control at 250 g/ha ([10]; 250 g ai/ha)
20%: pest or weed control at 63 g/ha ([5]; 63 g ai/ha)
70%: pest or weed control at 250 g/ha ([9]; 250 g ai/ha)
0: Pre-emerge Herbicidal Activity AMARE (phytotoxicity rating, scale 0-100) ([1]; 63 g ai/ha) | Pre-emerge Herbicidal Activity AMARE (phytotoxicity rating, scale 0-100) ([1]; 250 g ai/ha) | Pre-emerge Herbicidal Activity CASOB (phytotoxicity rating, scale 0-100) ([2]; 63 g ai/ha) | Pre-emerge Herbicidal Activity CASOB (phytotoxicity rating, scale 0-100) ([2]; 250 g ai/ha)
60%: pest or weed control at 250 g/ha ([7]; 250 g ai/ha)
50%: pest or weed control at 250 g/ha ([5]; 250 g ai/ha) | pest or weed control at 250 g/ha ([11]; 250 g ai/ha)
